The values that follow come from PMC9455983 (International Journal of Molecular Sciences, 2022).

In one data set the target is T1, mu-opioid receptor (MOR) (Rattus norvegicus, UniProt P33535).
T1 construct: Rat cortices were homogenized using 50 mM Tris, pH 7.4, and centrifuged at 16,500 rpm for 10 min; from tissue; host or cells: rat cortex membranes
Briefly: MOR radioligand competition binding assay ([3H]-DAMGO). Particulars: Mu screening results. Summed up:
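Competition for 2 nM [3H]-DAMGO binding was measured in rat cortex membrane suspension (50 mM Tris, pH 7.4, plus 2 mg/mL bovine serum). After filtration through GF/B filters pre-soaked in BSA, filter radioactivity was counted. Data are two duplicate experiments reported as mean ± SD.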
For orientation: In a radioligand displacement assay an active substance lowers the binding of a labelled ligand.

Data set [1] has as its target T2, kappa-opioid receptor (KOR) (Cavia porcellus, UniProt P41144).
T2 construct: Guinea pig cortices and cerebella were homogenized using 50 mM Tris, pH 7.4; from tissue; host or cells: guinea pig cortex and cerebellum membranes
Briefly: KOR radioligand competition binding assay ([3H]U69,593). On the set-up: species or system guinea pig. Particulars: Kappa screening results. The essentials: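 Guinea pig cortex and cerebellum homogenates in 50 mM Tris pH 7.4 with 10 mM MgCl2, 2 nM [3H]U69,593, 2 h at 25 °C. Unlabeled U50,488 gave the standard curve and nonspecific binding. Filtration on BSA-soaked GF/B filters, scintillation counting; two replicates, repeated twice, mean ± SD.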

Data set [2] concerns the target T3, delta-opioid receptor (DOR) (Rattus norvegicus, UniProt P33533).
T3 construct: Rat cortices were homogenized using 50 mM Tris, pH 7.4, 10 mM MgCl2-6H2O, 200 µM PMSF; from tissue; host or cells: rat cortex membranes
Briefly: DOR radioligand competition binding assay ([3H]-DPDPE). Particulars: Delta screening results. The essentials:
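Radioligand was 2 nM [3H]-DPDPE, incubated 2.5 h at 25 °C with homogenized rat cortex (50 mM Tris pH 7.4, 10 mM MgCl2, 200 µM PMSF). Bound ligand separated on GF/B filters and counted; nonspecific binding from unlabeled DPDPE. Values are mean ± SD, two experiments, two replicates each.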

The test system of data set [3] is C57BL/6J mice. Briefly: 55 °C warm-water tail-withdrawal assay (antinociception). Type of data set: in vivo, mouse. Particulars: for ED50 (and 95% Confidence Interval (C.I.)) Values, i.c.v. (nmol): antinociception at peak response, mice, * ED50 estimated where maximum antinociception not achieved; for duration of significant antinociception: maximum doses tested. As to the method: For intracerebroventricular (i.c.v.) administration, the 1968-series compounds were dissolved in dimethyl sulfoxide (DMSO), followed by the addition of sterile saline (0.9%) so that the final vehicle was 50% DMSO and 50% saline, and the i.c.v. injections were performed as described previously. For per os (p.o.) administration, 1968-4 and 1968-22 were administered in 10% Ethanol/10%Tween-80/80% 0.9% saline. All solutions for animal administration were prepared fresh daily.
Antinociception was calculated according to the following formula: % antinociception = 100 × (test latency − control latency)/(15 − control latency). Tail-withdrawal data points are the means of 8–16 mice, unless otherwise indicated, with SEM shown by error bars.
All dose–response lines were analyzed by regression, and ED50 (effective dose producing 50% antinociception) values and 95% confidence intervals (C.I.) were determined using individual data points from graded dose–response curves with Prism 8.0 software (GraphPad, La Jolla, CA, USA). Percent antinociception was used to determine within group effects and to allow comparison to baseline latency in tail-withdrawal experiments. The statistical significance of differences between ED50 values was determined by evaluation of the ED50 value shift via nonlinear regression modeling with Prism software. Significant differences in behavioral data were analyzed by ANOVA (one-way or two-way with repeated measures (RM), as appropriate). Significant results were further analyzed with Sidak’s, Tukey’s, or Dunnett’s multiple comparison post hoc tests, as appropriate. Data for conditioned place preference experiments were analyzed by two-way RM ANOVA, with analyses examining the main effect of the conditioned place preference phase (e.g., pre- or post-conditioning) and the interaction of drug pretreatment. Significant effects were further analyzed using Sidak’s HSD post hoc testing. All data are presented as mean ± SEM, with significance set at p < 0.05.

Data set [4] has as its system C57BL/6J mice. Briefly: Opioid receptor involvement in antinociception (antagonist pretreatment, tail-withdrawal assay). The format is in vivo, mouse. The method, then:
Pretreatment of mice with the opioid antagonist naloxone (10 mg/kg, s.c., −15 min) was used to assess receptor contribution to the observed antinociception induced by maximal tested doses of each 1968-series compound tested.
The opioid receptor involvement in the agonist activity of the heterocyclic peptidomimetics was determined by pretreating mice with a single dose of β-funaltrexamine (β-FNA, 10 mg/kg, i.p.) or nor-BNI (10 mg/kg, i.p.) 24 h in advance of administration of a dose of 1968-series compound.

For the next data set, the target named is κ opioid receptor. More on the design: method as in PMID 25996309. Particulars: cited from earlier work.
The next data set concerns the target δ opioid receptor. More on the design: method as in PMID 25996309. Particulars: cited from earlier work.
Data set [5] deals with C57BL/6J mice. Briefly: Respiration rate in CLAMS/Oxymax system. The format is in vivo, mouse. The conditions noted are these: 100 nmol, i.c.v. As to the method: (§1) Respiration rates (in breaths per minute) and animal locomotive activity (as ambulations) were assessed using the Oxymax/CLAMS system (Columbus Instruments, Columbus, OH), as described previously. Mice were habituated to their individual sealed housing chambers for 60 min before testing. Mice were administered 1968-22 (0.3–100 nmol, i.c.v.), morphine (100 nmol, i.c.v.), or vehicle, as indicated, and five min later confined to the CLAMS testing chambers. Pressure monitoring within the sealed chambers measured frequency of respiration. Infrared beams located in the floor measured locomotion as number of beam breaks. Respiration and locomotive data were averaged over 20 min periods for 120 min post-injection of the test compound. Data are presented as % vehicle response ± SEM, ambulation or breaths per minute.

The subject of data set [6] is C57BL/6J mice. Briefly: Ambulation (locomotor activity) in CLAMS/Oxymax system. The format is in vivo, mouse. The conditions noted are these: 100 nmol, i.c.v. The method, then:
as §1

Data set [7] concerns C57BL/6J mice. Briefly: Conditioned place preference / aversion. The format is in vivo, mouse. Particulars: 10 mg/kg, i.p.; two days of place conditioning.
In data set [8] the test system is C57BL/6J mice. Briefly: Acute antinociceptive tolerance determination.
[9] abbreviates: experiment 1, unit inferred, read-out: Ki (Exp 1).
[10] abbreviates: experiment 2, unit inferred, read-out: Ki (Exp 2).
The mark [11] stands for this setting: mean of Exp 1 and Exp 2, unit inferred, read-out: MEAN (Ki).
Setting [12] is: mean of two experiments, read-out: Ki.
[13] abbreviates: first Ki column, unit not printed (apparently M), read-out: Ki (first column).
[14] abbreviates: mean of both Ki, unit inferred, read-out: MEAN (Ki).
Where [15] appears, read: second Ki column, unit not printed (apparently M), read-out: Ki (second column).

Structures are written as SMILES. Read-outs that look alike come from different tables or passages of the source.

On to `Cc1cc(O)cc(C)c1C[C@H]1CN([C@@H](Cc2ccc(O)cc2)CN2C(=N)NC[C@@H]2Cc2ccccc2)C(=N)N1` [1968-4], for which the Ki at mu-opioid receptor (MOR) (setting [9]) came to 16.9 nM; at mu-opioid receptor (MOR) (setting [10]) it was 9.51 nM; on mu-opioid receptor (MOR) (setting [11]), 13.2 nM; at mu-opioid receptor (MOR) (setting [12]), 13 nM; in data set [1] (setting [9]), 311 nM; in data set [1] (setting [10]), 178 nM. For the same compound, the Ki stood at 245 nM in data set [1] (setting [11]); 245 nM in [1] (setting [12]); 729 nM in data set [2] (setting [13]); 874 nM in data set [2] (setting [14]); 874 nM in [2] (setting [12]); 1020 nM in [2] (setting [15]). In addition, in the data set on C57BL/6J mice [3] (30 nmol, i.c.v.), the “antinociception at the highest dose tested” value is given as “approximately 60%”. Moreover, in the data set with C57BL/6J mice [3] (10 mg/kg, p.o.), the “antinociception after oral administration (in words)” value is “significant antinociception”. Further, in the data set on C57BL/6J mice [3] (10 mg/kg, p.o.), the “duration of significant antinociception after oral administration” value was “brief”. In addition, the “time of peak antinociception after i.c.v. administration” value with C57BL/6J mice [3] (i.c.v.) is 30 min. The “ED50 (and 95% Confidence Interval (C.I.)) Values, i.c.v. (nmol)” value in the data set on C57BL/6J mice [3] (i.c.v.) is listed as 20.8 (5.52–127.1) nmol. Further, the “duration of significant antinociception” value with C57BL/6J mice [3] (i.c.v.) came to 60 min.

Take `Cc1cc(O)cc(C)c1C[C@@H](CN1C(=N)NC[C@@H]1C)N1C[C@H](Cc2ccc(O)cc2)NC1=N` [1968-16]: the Ki at mu-opioid receptor (MOR) (setting [9]) amounted to 7.52 nM; at mu-opioid receptor (MOR) (setting [10]), 9.24 nM; on mu-opioid receptor (MOR) (setting [11]) it was 8.38 nM; at mu-opioid receptor (MOR) (setting [12]) it was 8 nM; in data set [1] (setting [9]), 246 nM; in data set [1] (setting [10]) it was 293 nM. Besides, the Ki in data set [1] (setting [11]) is 270 nM; in data set [1] (setting [12]) it was 270 nM; in data set [2] (setting [13]), 616 nM; in data set [2] (setting [14]) it was 697 nM; in data set [2] (setting [12]) it was 697 nM; in data set [2] (setting [15]) it was 777 nM. The “ED50 (and 95% Confidence Interval (C.I.)) Values, i.c.v. (nmol)” value with C57BL/6J mice [3] (i.c.v.) is 2.00 (0.5–7.45) nmol. Further, the “duration of significant antinociception” value in the data set on C57BL/6J mice [3] (i.c.v.) was found to be 70 min. Besides, the “effect of naloxone pretreatment on antinociception” value in the data set on C57BL/6J mice [4] (naloxone 10 mg/kg, s.c., −15 min, maximal tested i.c.v. dose of compound) was “most susceptible to antagonism by naloxone”. Besides, the “effect of naltrindole (DOR antagonist) pretreatment on antinociception” value with C57BL/6J mice [4] (naltrindole 20 mg/kg, i.p., −20 min, 1968-16 30 nmol or 1968-22 0.3 nmol, i.c.v.) is “significantly antagonized”. Moreover, the “effect of nor-BNI (KOR antagonist) pretreatment on antinociception” value with C57BL/6J mice [4] (nor-BNI 10 mg/kg, i.p., −24 h, 1968-16 30 nmol or 1968-22 0.3 nmol, i.c.v.) was “significantly antagonized”. The “effect of β-FNA (MOR antagonist) pretreatment on antinociception” value with C57BL/6J mice [4] (β-FNA 10 mg/kg, i.p., −24 h, 1968-16 30 nmol or 1968-22 0.3 nmol, i.c.v.) is “significantly antagonized”.

`CC(C)C[C@H]1CN2C(=CC3=NC[C@H](C(C)C)N3C[C@@H]2Cc2ccc(O)cc2)N1CCc1ccccc1` [Diimidazodiazepine 14]: the values for the Ki at κ opioid receptor and on δ opioid receptor were 23 ± 12 nM and 32 ± 6 nM, respectively.

Take `CN1CC[C@]23c4c5ccc(O)c4O[C@H]2[C@@H](O)C=C[C@H]3[C@H]1C5` [Morphine, morphine, reference compound]: in the data set with C57BL/6J mice [3] (i.c.v.), the “time of peak antinociception after i.c.v. administration” value was 30 min and the “ED50 (and 95% Confidence Interval (C.I.)) Values, i.c.v. (nmol)” value was 3.09 (2.76–3.50) nmol. Moreover, in the data set with C57BL/6J mice [5], the “effect on respiration rate vs vehicle” value is recorded as “significant, time-dependent respiratory depression”. For the same compound, in the data set with C57BL/6J mice [6], the “effect on ambulation vs vehicle” value is on record as “elevated ambulations”. Besides, the place conditioning result in the data set with C57BL/6J mice [7] is “significant place preference”. Besides, the “fold rightward shift in dose-response curve of the second dose (acute tolerance)” value with C57BL/6J mice [8] (ED50 dose i.c.v. at 0 h, graded doses at 8 h) stood at 7.71 fold. In addition, the “ED50 (95% C.I.) of second dose at 8 h” value in the data set with C57BL/6J mice [8] (i.c.v., after ED50 pretreatment at 0 h) is listed as 23.8 (17.0–31.6) nmol.
